Legend:
[1] = test system: GFAP-lacZ expression in T6/lacZ/C1 cells; test: X-gal staining of T6/lacZ/C1 cells treated with TGF-β1, PDGF-BB and LPS; assay type: cell-based, rat; conditions: 0.1 to 10 ng/ml, full DMEM, 72 hours, X-gal one hour
Protocol: A lacZ reporter assay kit for cell staining (InvivoGen, CA, USA) was used to detect the reporter gene activity in both stable and transient transfectants. Development of the blue end product was monitored at different time intervals (15, 30, 60, 90, and 120 minutes). The staining results were documented with a digital camera (DP12) attached to an Olympus inverted bright field microscope (IX51).
To determine possible induction of GFAP-lacZ expression by molecules with pro-fibrotic and proinflammatory properties in activated HSC the T6/lacZ/C1 cells were treated with TGF-β1, PDGF-BB and LPS respectively at various concentrations (0, 0.1, 1 and 10 ng/ml) in the full DMEM medium for 72 hours. The cells were then stained with X-gal for one hour and photographed. […] In order to obtain truly quantitative data, a solution assay was employed to measure possible up-regulation of β-galactosidase activity by TGF-β1 in experiments below.

[2] = test system: 2.2 kb hGFAP-lacZ transgene in T6/lacZ/C1 cells; test: quantitative solution assay of β-galactosidase activity in T6/lacZ/C1 cells; assay type: cell-based, rat
Protocol: To quantify the β-galactosidase activity in cell extracts reported in FIGS. 4 to 10, an enzyme assay kit (E2000, Promega, Wis., USA) was used to measure the specific activity of P-galactosidase, according to the manufacturer's instructions in a 96-well format. Briefly, the cells were washed twice with 1×PBS buffer (pH7.4), lysed for 15 minutes at room temperature with the reporter lysis buffer, and harvested using a cell scraper. The total cell extracts were appropriately diluted (5-10 fold), and assayed for the enzyme activity. The specific β-galactosidase activity was expressed in milliunit per milliliter (mU/ml) using a standard curve established from the β-galactosidase standard (provided with the kit). The protein concentration was measured with a BCA protein assay kit (Pierce, Ill., USA), and used to further convert the specific β-galactosidase activity from mU/ml to mU/μg total cellular protein. Six independent experiments were performed for each time and concentration data point.
(§1) Cells were seeded into 12-well plates in full DMEM and 500 μg/ml Zeocin. Twelve hours prior to the cytokine treatment, medium was changed so that the cells were allowed to grow in low serum (0.5% FBS) DMEM. The cells at a confluence of 70-80% were incubated with various concentrations (0, 0.1, 1 and 10 ng/ml) of recombinant human TGF-β1, PDGF-BB (BioVision, CA, USA) and 0, 0.1, 1 and 10 μg/ml lipopolysaccharide (LPS E. coli, Sigma) respectively for 0, 2, 8, 16, 24, 48 and 72 hours before they were harvested for β-galactosidase activity assay and real-time RT-PCR GFAP assay.
To quantify specific transgene response to TGF-β1, we first set up an experiment to assess possible effects that serum concentration and culture duration may have on the transgene expression. T6/lacZ/C1 cells were initially grown in DMEM with high serum (10% FBS), and then some of the cells were starved with a DMEM with low serum (0.5% FBS) for 12 hours prior to the addition of TGF-β1 (1 ng/ml). After incubation for various times (0, 2, 8, 24, 48 and 72 hours), cells were harvested for β-galactosidase activity assay. […] After 72 hours, the level slipped to 58% of the value at 0 hour (P<0.001). The assay results were depicted in FIG. 8.
To further dissect the TGF-β1 contribution to the transgene induction, we treated T6/lacZ/C1 cells grown in low serum with various concentrations of TGF-β1 (0, 0.1, 1, 10 ng/ml) and assayed the enzymatic activity for three time points (24, 48 and 72 hours). The assay results were plotted in FIG. 9. […] When the non-treatment groups were normalized to 1 and the magnitude of induction were plotted for the 10 ng/ml treatment groups at all three time points (FIG. 10), a trend of increasing induction with time was apparent.

endogenous rat GFAP mRNA [3] = test: real-time RT-PCR for endogenous rat GFAP mRNA in T6/lacZ/C1 cells; assay type: cell-based
Protocol: as §1
Total RNA was reverse transcribed to cDNA using Taqman's reverse transcription reagent (Cat. #N8O8-0234A total of 400 ng of RNA in 7.7 μl nuclease-free water was added to 2 μl 10× reverse transcriptase buffer, 4.4 μl 25 mM magnesium chloride, 4 μl deoxyNTP mixtures, 1 μl random hexamers, 0.4 μl RNase inhibitor and 0.5 μl reverse transcriptase (50 U/μl) in a final reaction volume of 20 μl. The reaction was performed for 10 min at 25° C. (annealing), 30 min at 48° C. (cDNA synthesis) and 5 min at 95° C. (enzyme denaturation).
Real-time quantitative PCR was carried out with an ABI 7500 Real Time PCR System (Applied Biosystems, CA, USA). One microliter of sample cDNA was used in each PCR reaction, with the housekeeping β-actin gene as a reference for normalization. The primers and probes for rat β-actin and GFAP were purchased from Taqman's assay-on-demand database. […]
(§2) Relative quantitation of the target mRNA was calculated using the comparative threshold cycle (CT) methods as described in the User Bulletin #2 (ABI Prism 7700 Sequence Detection System). CT indicates the fractional cycle number at which the amount of amplified target reaches a fixed threshold within the linear phase of gene amplification. ΔCT, which reflects the difference between CT target and CT β-actin, is inversely correlated to the abundance of mRNA transcripts in the samples. ΔCT for each sample was normalized against control experiment or calibrator and expressed as ΔΔCT. Relative quantitation is given by 2^−ΔΔCT to express the up-regulation or down regulation of the target gene under the treatments compared to the control. Six independent experiments were performed for each data point and three ACT were measured for each experiment.
It was known that GFAP, along with desmin, SMAA, and vimentin, was expressed in the clonal T6 cells (Vogel et al. (2000), J Lipid Res. 41(6):882). […] In order to investigate how the endogenous GFAP expression is regulated by TGF-β1 in the T6/lacZ/C1 cells during different time course, we quantified rat GFAP mRNA level using a real-time RT-PCR method. […] Total RNA was isolated from different cells and quantified as described in Materials and Methods, and the results were depicted in FIG. 11.

GFAP-lacZ transgene = test: chemiluminescent β-galactosidase activity assay of GFAP-lacZ transgene expression in T6/GFAP-lacZ cells; assay type: cell-based, rat; conditions: 10 ng/ml PDGF-BB, 48 hours, low serum DMEM
Protocol: (§3) Cells were initially seeded in 12-well plates in DMEM supplemented with 10% FBS and weaned to a low serum DMEM (0.5% FBS) at a confluence of 70-80% for 12 hours of adaptation. Cells were then incubated with different concentrations of compounds for various amounts of time before being assayed for β-galactosidase activity and GFAP mRNA. For compound attenuation studies, cells were treated with a pro-fibrotic cytokine (TGF-β1 or PDGF-BB) either sequentially or concurrently with a compound (EGCG or genistein). In the sequential scheme, cells were first treated with a cytokine for 1-3 days, then the cytokine-containing culture medium was replaced with a fresh medium containing a particular compound only for various times. Details of the cytokine/compound treatments can be found in the individual figure legends.
A lacZ reporter assay kit for cell staining (InvivoGen, CA, USA) was used to detect the reporter gene activity in T6/GFAP-lacZ cells treated with EGCG or genistein. The staining results were documented with a digital camera (DP12) attached to an Olympus inverted bright field microscope (IX51) after development for 60 min. For quantification, the β-galactosidase activity in cell extracts was measured using a chemiluminescent assay kit (Roche, Mannheim, Germany) in a 96-well plate format, according to the manufacturer's instructions. Briefly, cells were washed twice with ice-cold 1×PBS (pH 7.4), lysed for 30 minutes at room temperature with the lysis buffer, and supernatant was collected for assays. Protein concentration was determined with a BCA protein assay kit (Pierce, Ill., USA). Specific β-galactosidase activity was obtained by normalizing against total cellular protein content.

endogenous rat GFAP mRNA [4] = test: real-time RT-PCR for endogenous rat GFAP mRNA in T6/GFAP-lacZ cells; assay type: cell-based; conditions: 10 ng/ml PDGF-BB, 24 hours, low serum DMEM
Protocol: as §3
Total RNA was reverse-transcribed to cDNA using Taqman's reverse transcription reagent (Applied Biosystems, CA, USA). A total of 200 ng of RNA in 7.7 μl of nuclease-free water was added to 2 μl 10× reverse transcriptase buffer, 4.4 μl 25 mM magnesium chloride, 4 μl deoxyNTP mixtures, 1 μl random hexamers, 0.4 μl RNase inhibitor and 0.5 μl reverse transcriptase (50 U/μl) in a final reaction volume of 20 μl. The reaction was performed for 10 min at 25° C. (annealing), 30 min at 48° C. (cDNA synthesis) and 5 min at 95° C. (enzyme denaturation).
Real-time quantitative PCR was carried out with an ABI 7500 Fast Real-time PCR System (Applied Biosystems, CA, USA). Two micro liters of sample cDNA were used in each PCR reaction, with β-actin gene as a reference for normalization. The primers and probes for rat β-actin and GFAP were ordered from Taqman's assay-on-demand database. The PCR reaction was performed under a default profile consisting of 95° C. for 20 seconds (enzyme denaturation) and 40 cycles of amplification (denaturation 3 seconds, annealing and extension 30 seconds). Some of the real-time RT-PCR reactions were separated on an agarose gel for visual confirmation of discrete products (data not shown).
as §2, with “samples. ACT” for “samples. ΔCT”, “or down-regulation” for “or down regulation”, “control.” for “control. Six independent experiments were performed for each data point and three ACT were measured for each experiment.”

[5] = 10 ng/ml TGF-β1, low serum, 72 hours

Molecule	X-gal blue staining compared to the untreated [1]	specific β-galactosidase activity ([2]; 1 ng/ml TGF-β1, 0.5% FBS, 24 hour (peak)) [mU/μg]	transgene expression level relative to 0 hour ([2]; 1 ng/ml TGF-β1, 0.5% FBS, 48 hours)	transgene expression level, % of the value at 0 hour ([2]; 1 ng/ml TGF-β1, 0.5% FBS, 72 hours) [%]	induction of β-galactosidase activity ([2]; 10 ng/ml TGF-β1, low serum, 24, 48 and 72 hours)	absolute enzymatic (β-galactosidase) activity [2, 5] [mU/μg]	magnitude of induction of β-galactosidase activity vs non-treatment group (normalized to 1) [2, 5]	GFAP mRNA level relative to basal level at 0 hour (normalized to 1) (endogenous rat GFAP mRNA [3]; 1 ng/ml TGF-β1, 16 hour) [fold]	GFAP mRNA level relative to basal level at 0 hour (normalized to 1) (endogenous rat GFAP mRNA [3]; 1 ng/ml TGF-β1, 48 hours) [fold]	GFAP mRNA level relative to basal level at 0 hour (normalized to 1) (endogenous rat GFAP mRNA [3]; 1 ng/ml TGF-β1, 72 hours) [fold]	GFAP mRNA level relative to basal level (endogenous rat GFAP mRNA [3]; 1 ng/ml TGF-β1, within the first 24 hours (except 16 hour))	induction of transgenic GFAP-lacZ expression (GFAP-lacZ transgene) [%]	induction of endogenous GFAP (endogenous rat GFAP mRNA [4]) [%]
TGF-β1: recombinant human transforming growth factor-β1, pro-fibrotic cytokine (BioVision)	more intense blue staining	0.52	dropped to the same level as at 0 hour	58	Significant induction	0.43	nearly two fold	0.5	7	8.5	remained steady	–	–
PDGF-BB: recombinant human platelet derived growth factor-BB, pro-fibrotic cytokine (BioVision) (protein, UniProt P01127 82-190, looked up) Platelet-derived growth …: SLGSLTIAEPAMIAECKTRTEVFEISRRLIDRTNANFLVWPPCVEVQRCSGCCNNRNVQCRPTQVQLRPVQVRKIEIVRKKPIFKKATVTLEDHLACKCETVAAARPVT	less pronounced response	–	–	–	–	–	–	–	–	–	–	24	53
